According to patent publication US7718614B2 (Kurume University, priority 2003, dated 2010):
Values joined by “and” are separate entries in the source; they are usually repeats but may differ in a detail not shown here. Equal values may be shown once. “Also recorded” adds a separate entry of the source.

What was measured:
peptide-specific IgG [1] = assay: ELISA of serum IgG specific for the administered peptides, Example 1; format: in vivo, human; parameters: key: −: absent; +: present, low titer; ++: present, high titer; conditions: serum of the individual case; for Anti-peptide IgG during the combination therapy, 6th: after 6th vaccination; for Anti-peptide IgG during the combination therapy, 12th: after 12th vaccination; for Anti-peptide IgG during the combination therapy, 18th: after 18th vaccination; for Anti-peptide IgG during the combination therapy, Pre: before combination therapy
[2] = test system: peptide-specific CTL precursors in PBMCs; assay: Peptide-specific CTL precursor assay (IFN-γ production of peptide-stimulated PBMCs), Example 1; format: cell-based, human; parameters: key to Cellular response to peptide during the combination therapy, 12th / Cellular response to peptide during the combination therapy, 6th / Cellular response to peptide during the combination therapy, Pre: Ar: p* ≦ 0.1 and 500 ≦ net**; A: p ≦ 0.05 and 50 ≦ net; B: p ≦ 0.05 and 25 ≦ net < 50; C: 0.05 < p < 0.1 and 50 ≦ net; AAAA: all four wells of quadruplicate assay were positive; AAA: three wells of quadruplicate assay were positive; AA: two wells of quadruplicate assay were positive; conditions: PBMCs of the individual case; for Cellular response to peptide during the combination therapy, 12th: after 12th vaccination; for Cellular response to peptide during the combination therapy, 6th: after 6th vaccination; for Cellular response to peptide during the combination therapy, 18th: after 18th vaccination; for Cellular response to peptide during the combination therapy, Pre: before combination therapy, grade of each positive well of quadruplicate IFN-γ assay;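 for all read-outs here: PBMCs cultured with each peptide at 10 µM, restimulated at 20 µM every 3 days up to 12 days, then 18 hr with peptide-pulsed target cells, IFN-γ by ELISA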
Experimental: Before the first vaccination and 7 days after every 6th vaccination, 30 ml of peripheral blood was obtained, and PBMCs were isolated by means of Ficoll-Conray density gradient centrifugation. Peptide-specific CTL precursors in PBMCs were detected using a previously reported culture method [24]. Briefly, PBMCs (1×10^5 cells/well) were incubated with 10 μM of each peptide in U-bottom-type 96-well microculture plates (Nunc, Roskilde, Denmark) in 200 μl of culture medium. The culture medium contained 45% RPMI-1640 medium, 45% AIM-V™ medium (Invitrogen Corp., Carlsbad, Calif.), 10% FCS, 100 U/ml of interleukin-2 (IL-2) and 0.1 mM MEM nonessential amino acid solution (Invitrogen Corp.). Half of the medium was removed and replaced with the new medium containing a corresponding peptide (20 μM) every 3 days for up to 12 days. […] The target cells (C1R-A2402 or T2, 1×10^4/well) were pulsed with each peptide (10 μM) for 2 hr, and then effector cells (1×10^5/well) were added to each well with the final volume of 200 μl. After incubation for 18 hr, the supernatants (100 μl) were collected, and the amounts of IFN-γ were measured using an enzyme-linked immuno-sorbent assay (ELISA) (limit of sensitivity: 10 pg/ml). All experiments were performed in the four different wells with duplicate assays. […] Peptides were chosen based upon evaluation of all 4 wells by the order shown above.
Peptide-specific CTL precursors in PBMCs were detected using a previously reported culture method [24], while an ELISA was used to detect the serum IgG levels specific for the peptides administrated, as reported previously [13-15]. […] Namely, PBMCs were harvested every 2 weeks and were cultured (10^4 cells/well) for 2 days in triplicate assays with 10 μl M of phytohemagglutinin (PHA), 10 ng/ml of Epstein-Bar virus (EBV)-derived peptide with HLA-A24 or -A2 binding motif, and 10 ng/ml of two different peptides under vaccination. After 2 days in culture, the amounts of IFN-γ in cell free supernatants were measured in triplicate assays, and viable cell numbers were also counted. To avoid biases in each assay, all the PBMCs were once cryopreserved and the four different PBMCs (two from healthy donors, one from patients PBMCs harvested 2 weeks before the latest vaccination, and one from the latest vaccination) were thawed at the same time in the morning of the experiment. The PBMCs from healthy donors were from the same donors throughout the series of immunological monitoring. Responses (IFN-γ production) to PHA, EBV-peptide, and the vaccinated peptides were considered to be mediated by resting T cells, memory T cells, and activated T cells, respectively.

[3] = test system: peptide-specific CTL precursors in PBMCs; assay: Peptide-specific CTL precursor assay (IFN-γ production), Example 2; format: cell-based, human; conditions: for Cellular response to peptide, 6th (mean specific IFN-γ production): post(6th)-vaccination PBMCs of the individual patient, * p ≦ 0.05, ** p ≦ 0.10 increased versus pre; for Cellular response to peptide, Pre (mean specific IFN-γ production): pre-vaccination PBMCs of the individual patient, response to HIV peptide subtracted
Experimental: Before the first vaccination and 7 days after every 6th vaccination, 30 ml of peripheral blood was obtained, and PBMCs were isolated by means of Ficoll-Conray density gradient centrifugation. Peptide-specific CTL precursors in PBMCs were detected using a previously reported culture method [24]. Briefly, PBMCs (1×10^5 cells/well) were incubated with 10 μM of each peptide in U-bottom-type 96-well microculture plates (Nunc, Roskilde, Denmark) in 200 μl of culture medium. The culture medium contained 45% RPMI-1640 medium, 45% AIM-V™ medium (Invitrogen Corp., Carlsbad, Calif.), 10% FCS, 100 U/ml of interleukin-2 (IL-2) and 0.1 mM MEM nonessential amino acid solution (Invitrogen Corp.). Half of the medium was removed and replaced with the new medium containing a corresponding peptide (20 μM) every 3 days for up to 12 days. […] The target cells (C1R-A2402 or T2, 1×10^4/well) were pulsed with each peptide (10 μM) for 2 hr, and then effector cells (1×10^5/well) were added to each well with the final volume of 200 μl. After incubation for 18 hr, the supernatants (100 μl) were collected, and the amounts of IFN-γ were measured using an enzyme-linked immuno-sorbent assay (ELISA) (limit of sensitivity: 10 pg/ml). All experiments were performed in the four different wells with duplicate assays.
All patients were vaccinated with up to 4 peptides selected from the 16 candidates by pre-vaccination measurements.

peptide-specific IgG [4] = assay: ELISA of serum anti-peptide IgG, Example 2; format: in vivo, human; parameters: key: −: absent; +: present, low titer; ++: present, high titer; conditions: serum of the individual patient; for Anti-peptide IgG, 6th: after 6th vaccination; for Anti-peptide IgG, Pre: pre-vaccination
Experimental: Peptide-specific CTL precursors in PBMCs were detected using a previously reported culture method, while an ELISA was used to detect the serum IgG levels specific for the peptides administrated, as reported previously. In addition, a new monitoring method was conducted to carefully measure the estramustine-induced immunosuppression. Namely, PBMCs were harvested every 2 weeks and were cultured (10^4 cells/well) for 2 days in triplicate assays with […] of phytohemagglutinin (PHA), 10 ng/ml of Epstein-Bar virus (EBV)-derived peptide with HLA-A24 or -A2 binding motif, and 10 ng/ml of two different peptides under vaccination. After 2 days in culture, the amounts of IFN-γ in cell free supernatants were measured in triplicate assays, and viable cell numbers were also counted. To avoid biases in each assay, all the PBMCs were once cryopreserved and the four different PBMCs (two from healthy donors, one from patients PBMCs harvested 2 weeks before the latest vaccination, and one from the latest vaccination) were thawed at the same time in the morning of the experiment. The PBMCs from healthy donors were from the same donors throughout the series of immunological monitoring. Responses (IFN-γ production) to PHA, EBV-peptide, and the vaccinated peptides were considered to be mediated by resting T cells, memory T cells, and activated T cells, respectively.
Except for the following points, substantially the same approach was employed as Example 1.

Row | Sequence | Anti-peptide IgG during the combination therapy, 6th (peptide-specific IgG [1]) | Anti-peptide IgG during the combination therapy, 12th (peptide-specific IgG [1]) | Anti-peptide IgG during the combination therapy, 18th (peptide-specific IgG [1]) | Anti-peptide IgG during the combination therapy, Pre (peptide-specific IgG [1]) | Cellular response to peptide during the combination therapy, 12th [2] | Cellular response to peptide during the combination therapy, 6th [2] | Cellular response to peptide during the combination therapy, 18th [2] | Cellular response to peptide during the combination therapy, Pre [2] | Cellular response to peptide, 6th (mean specific IFN-γ production) [3] | Cellular response to peptide, Pre (mean specific IFN-γ production) [3] | Anti-peptide IgG, 6th (peptide-specific IgG [4]) | Anti-peptide IgG, Pre (peptide-specific IgG [4])
1 | LIADFLSGLI [UBE2V85-93] | − | + | + | − | A (p ≦ 0.05 and 50 ≦ net) |  |  |  |  |  |  | 
2 | ASLDSDPWV [WHSC2103-111] | − |  |  | − |  |  |  |  |  |  |  | 
3 | KLVERLGAA [lck246-254] | ++ (4×) and − | ++ (4×) and − | − | ++ (3×) and − (2×) | B (p ≦ 0.05 and 25 ≦ net < 50) (2×) and ArAA | A (p ≦ 0.05 and 50 ≦ net) | ArAAA | A (p ≦ 0.05 and 50 ≦ net) and ArC |  |  |  | 
4 | DLLSHAFFAI [ppMAPkkk432-440] | ++ and − (2×) and + | ++ and + (2×) | + | + and − (3×) |  | C (0.05 < p < 0.1 and 50 ≦ net); also recorded: A (p ≦ 0.05 and 50 ≦ net) |  | ArA and A (p ≦ 0.05 and 50 ≦ net) |  |  |  | 
5 | TFDYLRSVL [lck486] |  |  |  |  |  |  |  |  | 58.5 pg/mL | 375 pg/mL | + | −
6 | DVWSFGILL [lck422-430] | + (2×) and − (4×) | + (2×) and − (3×) | − | − (5×) and + | C (0.05 < p < 0.1 and 50 ≦ net) | C (0.05 < p < 0.1 and 50 ≦ net) and A (p ≦ 0.05 and AAA | C (0.05 < p < 0.1 and 50 ≦ net); also recorded: ArAAA | A (p ≦ 0.05 and 50 ≦ net); also recorded: Ar (p* ≦ 0.1 and 500 ≦ net**); also recorded: C (0.05 < p < 0.1 and 50 ≦ net) |  |  |  | 
7 | ALVEFEDVL [HNRPL140-148] | ++ | + |  | − | ArArArA |  |  | AAC |  |  |  | 
8 | RLAEYQAYI [SART 3309-317] | − | − | + | − | Ar (p* ≦ 0.1 and 500 ≦ net**) | Ar (p* ≦ 0.1 and 500 ≦ net**) | ArAC | A (p ≦ 0.05 and 50 ≦ net) |  |  |  | 
9 | DFMIQGGDF [CyB91-99] | − |  |  | − |  | C (0.05 < p < 0.1 and 50 ≦ net) |  |  |  |  |  | 
10 | EYCLKFTKL [ART 1170-179] | ++ | ++ | ++ | ++ | AAA | C (0.05 < p < 0.1 and 50 ≦ net); also recorded: A (p ≦ 0.05 and 50 ≦ net) | A (p ≦ 0.05 and 50 ≦ net) | A (p ≦ 0.05 and 50 ≦ net) |  |  |  | 
11 | TYSVSFDSL [PSM624] |  |  |  |  |  |  |  |  | 167 pg/mL | 100 pg/mL | + | +
12 | ILGELREKV [WHSC2141-] | − | − |  | − |  |  |  |  |  |  |  | 
13 | SYTRLFLIL [SART 2899-907] | − | − | − | − |  |  | A (p ≦ 0.05 and 50 ≦ net) | A (p ≦ 0.05 and 50 ≦ net) |  |  |  | 
14 | LYCESVHNF [PAP213] |  |  |  |  |  |  |  |  | 46.8 pg/ml and 850* pg/ml and 0 pg/ml and 186.8** pg/ml and 36.5 pg/ml and 153.5 pg/ml and 622.3* pg/ml and 9.5 pg/ml and 324.3** pg/ml and 32 pg/ml and 392.3* pg/ml | 0 pg/ml (3×) and 30.8 pg/ml and 5.8 pg/ml and 375 pg/ml and 250 pg/ml and 28.8 pg/ml and 80 pg/ml and 14.3 pg/ml and 33.8 pg/ml | ++ and + (5×) and − (4×) | + (6×) and − (5×)
15 | EYRGFTQDF [SART1 690] |  |  |  |  |  |  |  |  | 0 pg/mL and 81.8 pg/mL and 35 pg/mL | 0 pg/mL and 250 pg/mL and 449 pg/mL | + (2×) and − | + and − (2×)
16 | KLKHYGPGWV [CypB129-138] | − | − and + |  | − |  | A (p ≦ 0.05 and 50 ≦ net) |  | A (p ≦ 0.05 and 50 ≦ net) |  |  |  | 
17 | RLQEWCSVI [UBE2V43-51] | ++ (3×) and + | ++ |  | ++ and − (2×) and + | ArArArA; also recorded: A (p ≦ 0.05 and 50 ≦ net); also recorded: C (0.05 < p < 0.1 and 50 ≦ net) | ACC and AA |  | AAA and AAAB and ArA |  |  |  | 
18 | CYASGWGSI [PSA152] |  |  |  |  |  |  |  |  | 34.8 pg/ml and 0 pg/ml (2×) and 18.8 pg/ml and 15.5 pg/ml | 34.5 pg/mL and 39.5 pg/mL and 250 pg/mL and 49.3 pg/mL and 168.8 pg/mL | − (4×) and + | − (3×) and + (2×)
19 | RIIYDRKFL [EIF4EBP151-59] | − and ++ | − and ++ | + | − and + | A (p ≦ 0.05 and 50 ≦ net) |  | B (p ≦ 0.05 and 25 ≦ net < 50) |  |  |  |  | 
20 | GLLFLHTRTI [ppMAPkkk294-302] | + and − (2×) and ++ | + and − and ++ | + and − | − (3×) and + | C (0.05 < p < 0.1 and 50 ≦ net) | C (0.05 < p < 0.1 and 50 ≦ net) | ArArAA | A (p ≦ 0.05 and 50 ≦ net) |  |  |  | 
21 | NVLHFFNAPL [HNRPL501-510] | ++ and − (2×) and + | ++ (2×) and − | + | − (3×) and + | ArArAc; also recorded: ArArAr | AAA and ArArArAr | ArA | A (p ≦ 0.05 and 50 ≦ net) and ArAr |  |  |  | 
22 | VLEGMEVV [CypB172-179] | + | + | + | − (2×) and + | A (p ≦ 0.05 and 50 ≦ net) |  | B (p ≦ 0.05 and 25 ≦ net < 50); also recorded: A (p ≦ 0.05 and 50 ≦ net) | A (p ≦ 0.05 and 50 ≦ net) |  |  |  | 
